As usually defined, the Vmax is the top rate of the reaction or transport when substrate is in excess. As usually defined, the Km is the concentration of substrate that gives half-maximal velocity.

Data on 13 compounds can be found in patent US20100285540A1, “Process for the preparation of (R)-Beta-Arylalanines by coupled Racemase/Aminomutase catalysis” (Board of Trustees of Michigan State University, priority 2009, published 2010).

Read-outs that look alike come from different tables or passages of the source.

Test [1] has as its system amino acid racemase and PAM. Kind of test: Coupled enzyme reaction (racemase + PAM, DKR conditions). The conditions noted are these: 0.4 mM racemic α-arylalanine, 200 μg/mL racemase, 100 μg/mL PAM, 20 h. Format: biochemical. Here is the method: Coupled Enzyme Reaction. The coupled enzyme reaction mixture incubated at 31° C. contained partially purified amino acid racemase (200 μg) and PAM (100 μg) in 1 mL of 50 mM phosphate buffer (pH 8.0) containing 5% (v/v) glycerol. Each of the aryl α-amino acids (0.4 mM) were individually added to a separate assay tube containing the coupled enzyme mixture. After 20 h, the reactions were terminated by basification to pH 10-12 (with 0.5 N NaOH solution) and the amino acids were derivatized for quantification by chiral GC/EI-MS analysis as described previously.

Test [2] deals with T1, phenylalanine aminomutase (PAM) (Taxus canadensis, UniProt Q6GZ04).
T1 sequence (Q6GZ04 1-698): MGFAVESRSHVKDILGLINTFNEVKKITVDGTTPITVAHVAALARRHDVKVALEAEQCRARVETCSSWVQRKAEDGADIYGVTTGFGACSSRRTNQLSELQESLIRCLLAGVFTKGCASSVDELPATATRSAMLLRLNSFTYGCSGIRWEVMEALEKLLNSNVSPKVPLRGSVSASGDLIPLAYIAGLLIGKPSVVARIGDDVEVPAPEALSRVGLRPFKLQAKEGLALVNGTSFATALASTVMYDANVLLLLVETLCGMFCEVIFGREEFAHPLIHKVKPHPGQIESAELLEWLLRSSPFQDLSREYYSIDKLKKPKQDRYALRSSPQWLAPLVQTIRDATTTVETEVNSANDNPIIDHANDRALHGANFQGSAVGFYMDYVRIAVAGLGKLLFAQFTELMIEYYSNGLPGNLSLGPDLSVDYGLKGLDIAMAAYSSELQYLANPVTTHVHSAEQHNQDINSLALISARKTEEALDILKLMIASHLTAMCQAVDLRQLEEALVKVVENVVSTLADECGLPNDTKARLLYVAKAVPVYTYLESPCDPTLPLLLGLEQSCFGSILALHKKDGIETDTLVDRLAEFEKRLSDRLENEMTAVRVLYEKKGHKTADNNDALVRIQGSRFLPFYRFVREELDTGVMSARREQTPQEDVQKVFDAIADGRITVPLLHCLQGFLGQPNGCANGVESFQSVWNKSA
The test can be described thus: Equilibration of α- and β-arylalanines by PAM. It is filed as biochemical. The arrangement: His6 (N); made in house; host or cells: E. coli BL21(DE3). The following applies: 100 μg PAM, 31° C.; for β-product to α-substrate ratio: after 20 h, 0.4 mM substrate. As for the experimental part:
Assessing the Equilibration Rate of α- and β-Arylalanines by PAM. […] An aliquot was withdrawn from each reaction at five time points (0, 3, 6, 9 and 20 h). The ratio of (R)-β-arylalanine to (S)-α-arylalanine in each aliquot was calculated by GC/EI-MS fragmentation analysis and the abundances of the base peak fragment ions of the amino acid derivatives were compared as described earlier. The relative amount of each α-arylalanine and β-arylalanine at equilibrium was determined by linear regression analysis of the area of the base peak ion of the derivatized α- and β-arylalanines generated in the EI-MS. The peak area was converted to concentration of product (or substrate) by solving the corresponding linear equation, derived by plotting the area of the base peak ion (produced by the corresponding authentic standard in the mass spectrometer) against concentration ranging from 0 to 1.5 mM.

For test [3], the system named is previously reported racemase. The conditions noted are these: naturally occurring aromatic amino acids; cited from earlier work.
Test [4] deals with T1, phenylalanine aminomutase (PAM). The test can be described thus: Effect of (R)-α-phenylalanine on PAM activity (kinetic constants).
Procedure: Evaluation of the Effect of (R)-α-Phenylalanine on PAM Activity. Phenylalanine aminomutase (100 μg/mL) was added to 50 mM phosphate buffer (pH 8.0) containing 5% (v/v) glycerol at 31° C. containing either (S)-α-phenylalanine or (R)-β-phenylalanine at a range of concentrations (0.05, 0.10, 0.20, 0.40, 0.75, 1.5, and 3 mM). The reactions were incubated at 31° C. for 90 min under steady state conditions. Identical series of assays were run in parallel for the (S)-α- or (R)-β-phenylalanine as substrates, except 0.2 mM and 0.75 mM of (R)-α-phenylalanine were added separately to each series. Double reciprocal plots of velocity (vo) and concentration were constructed for the forward and reverse PAM reaction data sets. The equation of the best-fit line (R^2=0.98) was determined (Microsoft Excel 2003, Microsoft Corporation, Redmond, Wash.) to calculate the apparent KM and Ki for the appropriate reaction.^17
For test [5], the target named is T2, amino acid racemase from Pseudomonas putida (KT2440) (Pseudomonas putida, UniProt Q88GJ9).
T2 construct: His6 (N); made in house; host or cells: E. coli BL21(DE3)
T2 sequence (Q88GJ9 25-409): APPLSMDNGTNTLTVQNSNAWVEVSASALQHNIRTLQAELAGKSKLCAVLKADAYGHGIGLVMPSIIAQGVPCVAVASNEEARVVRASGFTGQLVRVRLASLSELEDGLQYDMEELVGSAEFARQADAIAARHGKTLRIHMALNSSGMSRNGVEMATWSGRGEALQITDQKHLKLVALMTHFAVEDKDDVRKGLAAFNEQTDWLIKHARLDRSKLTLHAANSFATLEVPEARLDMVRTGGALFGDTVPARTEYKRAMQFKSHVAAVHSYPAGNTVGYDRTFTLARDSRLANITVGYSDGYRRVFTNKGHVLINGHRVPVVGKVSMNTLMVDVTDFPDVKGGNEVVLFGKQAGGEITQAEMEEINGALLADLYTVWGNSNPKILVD
The test can be described thus: Racemization of α-arylalanines by amino acid racemase. It is filed as biochemical. As for the experimental part:
Assessing the Racemization Rate of α-Arylalanines by the Amino Acid Racemase. The partially purified (>90%) amino acid racemase (200 μg/mL) was added to 2.5 mL of 50 mM phosphate buffer (pH 8.0) containing 5% (v/v) glycerol and one different (S)-α-arylalanine (1.5 mM) in separate assays; the mixtures were incubated at 31° C. An aliquot was withdrawn from each reaction at five time points (0.5, 10, 30, 60, and 360 min). A similar time course experiment was conducted with (R)-α-phenylalanine.
Cofactor Dependency of the Amino Acid Racemase. To assess whether sufficient PLP, made by the E. coli BL21(DE3) expression host, remained bound to the functional PLP-dependent racemase for the duration of the assay, partially purified enzyme (400 μg) was added to each of two 2-mL assays that contained (S)-α-phenylalanine (1.5 mM). To one assay, exogenous PLP (50 μM) was added, and to the other, no cofactor was added. After 6 h, the contents of the reaction vial without PLP added were divided into two fractions […]; to one fraction was added PLP (50 μM), and the other fraction remained unchanged. Additional (S)-α-phenylalanine was added to a final concentration of 1.5 mM in all three assays, and incubated for 14 h.
Evaluation of the Effect of (R)-β-Phenylalanine on Racemase Activity. The partially purified amino acid racemase (400 μg) in 50 mM phosphate (2 mL, pH 8.0) containing 5% (v/v) glycerol buffer and (S)-α-phenylalanine (0.75 mM) was incubated in separate assays with or without (R)-β-phenylalanine (0.75 mM) added. Aliquots (0.5 mL) of each reaction mixture were withdrawn from each assay at three time points (30, 60 and 360 min). The amino acids in each fraction were derivatized and analyzed by chiral GC/EI-MS as described previously. The mol % of (S)-α-, (R)-α-arylalanine, and (R)-β-arylalanine in each sample were assessed by comparing the abundance of the diagnostic base peak fragment ion (m/z) derived by GC/EI-MS fragmentation for each of the corresponding analytes.

The target in test [6] is T1, phenylalanine aminomutase (PAM). The arrangement: His6 (N); made in house; host or cells: E. coli BL21(DE3). The following applies: enantiopure (S)-α-phenylalanine, 10 μg/mL enzyme, 10 μM substrate, same temperature; cited from earlier work.

Regarding `NC(Cc1cccs1)C(=O)O` (racemic) [2′-thienyl-α-arylalanine, (R,S)-3-(2′-thienyl)alanine], the “increase in conversion to (R)-β-arylalanine under DKR conditions compared to PAM alone” value (“increase in conversion” for short) in test [1] came out at 12%.
As for `NC(Cc1cccc(F)c1)C(=O)O` (racemic) [3′-fluoro-α-arylalanine, 2-amino-3-(3′-fluorophenyl)propionic acid], the “increase in conversion” value in test [1] was determined as 14%.
Take `NC(Cc1ccc(F)cc1)C(=O)O` (racemic) [4′-fluoro-α-arylalanine, 2-amino-3-(4′-fluorophenyl)propionic acid]: in test [1], the “increase in conversion” value is given as 16%.
Take `Cc1ccc(CC(N)C(=O)O)cc1` (racemic) [4′-methyl-α-arylalanine, (R,S)-2-amino-3-(4′-methylphenyl)propionic acid]: the “increase in conversion” value in test [1] is 12%.
As to `N[C@@H](Cc1ccccc1)C(=O)O` (racemic) [phenylalanine], the Keq in test [2] (racemic substrate 0.4 mM, 20 h) is 1.8. Moreover, the Vrel in test [3] is given as 0.18. Further, the “increase in conversion” value in test [1] was 19%.
In the case of `N[C@H](Cc1ccccc1)C(=O)O` [(R)-α-Phenylalanine, (R)-α-phenylalanine], the “inhibition of the PAM reaction (forward)” value in test [4] (0.2 mM and 0.75 mM (R)-α-phenylalanine) was “did not significantly inhibit”. In test [4] ((R)-β-phenylalanine as substrate), the “inhibition of the reverse PAM reaction” value was “not inhibited”.
Turning to `N[C@H](CC(=O)O)c1ccccc1` [(R)-β-phenylalanine, (R)-3-amino-3-phenylpropionic acid], the “substrate of the racemase” value in test [5] is on record as “nor was (R)-β-amino acid a substrate of the racemase”. Further, the “effect on racemase reaction rate / activity” value in test [5] (β-arylalanine added to racemization of (S)-α-arylalanine) is given as “not affect the reaction rate”.
For `N[C@@H](Cc1ccco1)C(=O)O` [(S)-2-furanyl-α-alanine, (S)-2-amino-3-(2′-furanyl)propionic acid], the “β-product to α-substrate ratio” value in test [2] turned out to be 0.41.
Still for that read-out and setting: the same measure for `N[C@@H](Cc1cccs1)C(=O)O` [(S)-2-thienyl-α-alanine, (S)-3-(2′-thienyl)alanine]: 0.71.
For the compound `Cc1ncc(COP(=O)(O)O)c(C=O)c1O` [PLP, pyridoxal-5′-phosphate, reference compound], in test [5] (1.5 mM α-arylalanines, exogenous PLP 50 μM), the “change in racemase reaction rate with or without supplementation” value is “No change in the reaction rate”.
In the case of `N[C@@H](Cc1c[nH]cn1)C(=O)O` [histidine], the Vrel in test [3] is listed as 1.
Consider `N[C@@H](Cc1c[nH]c2ccccc12)C(=O)O` [tryptophan], for which the Vrel in test [3] was 0.004.
Take (S)-α-phenylalanine: the Vmax in test [4] (forward reaction, with (R)-α-phenylalanine, no evident change relative to no inhibitor) came out at 0.1 µmol/min/mg. Besides, the Km came to 700 µM in test [4] (read-out: KM of PAM, in the absence of (R)-α-phenylalanine) and 1100 µM in test [4] (read-out: apparent Michaelis constant (KM apparent), forward reaction, in the presence of (R)-α-phenylalanine). Further, in test [6], the “Keq (previous study)” value is 1.1.
